Results: US9902940B2, “Human blood-brain barrier endothelial cells derived from pluripotent stem cells and blood-brain barrier model thereof” (Wisconsin Alumni Research Foundation, priority 2010, dated 2018)
Like-named read-outs stand apart in the source and are kept apart here.

Key:
IMR90-4-derived BMECs = experiment: Permeability coefficients (Pe) of radiolabeled small molecules across the IMR90-4-derived BMEC/astrocyte co-culture model
Protocol: For co-culture experiments, primary astrocytes were isolated as previously described^37. Briefly, cortices were isolated from P6 neonatal Sprague Dawley rats (Harlan) and minced in Hank's Balanced Salt Solution (HBSS; Sigma). […] After trituration and filtration, cells were cultured on collagen-I-coated flasks (100 μg/mL; Sigma) in DMEM containing 10% qualified heat-inactivated fetal bovine serum (FBS; Invitrogen), 10% heat-inactivated horse serum (Sigma), 2 mM L-glutamine, and 1% antibiotic-antimycotic (Invitrogen). Human embryonic kidney 293 cells (HEK cells; ATCC) were cultured in DMEM supplemented with 10% FBS, 1 mM sodium pyruvate (Sigma), 2 g/L sodium bicarbonate (Fisher Scientific), 30 mM HEPES (Sigma), and 1% antibiotic-antimycotic, and used as a non-neural cell control. Co-culture of hPSC-derived BMECs was initiated with primary rat astrocytes or HEK cells in either EC medium (called 1% PDS medium in Table 2) or 70:30 (v/v) DMEM/F12 (Sigma/Invitrogen) supplemented with 1% antibiotic-antimycotic, 2% B27 (Invitrogen), and 10% FBS^37 (called 10% FBS medium in Table 2). Trans-endothelial electrical resistance (TEER) measurements were performed using an EVOM voltohmmeter (World Precision Instruments) at the start of co-culture and every 24 h thereafter. The resistance value (Ω×cm^2) of an empty filter coated with collagen/fibronectin was subtracted from each measurement. Permeability coefficients (Pe) were evaluated after 24 h of co-culture as previously described^34. For sodium fluorescein Pe measurements, 10% FBS medium containing 1 μM sodium fluorescein solution was added to the apical chamber of the […]™ filter. 200 μL aliquots were extracted from the basolateral chamber (which contains 1.5 mL of medium) every 30 min and replaced by fresh medium. Using a fluorescent plate reader and calibration curve, the flux of fluorescein to the bottom chamber and permeability coefficients were calculated as described by Calabria et al^34. To determine the Pe of radiolabeled ligands, compounds were diluted to 0.4 μCi in transport buffer (distilled water with 0.12 M NaCl, 25 mM NaHCO3, 3 mM KCl, 2 mM MgSO4, 2 mM CaCl2, 0.4 mM K2HPO4, 1 mM HEPES, and 0.1% bovine serum albumin [BSA; Sigma]) and 0.5 mL were added to the upper chamber. 200 μL aliquots were extracted from the basolateral chamber every 15 min and replaced by fresh buffer. […] [^3H]-vincristine was purchased from American Radiolabeled Chemicals, while all other radiolabeled compounds were acquired from PerkinElmer. All compound incubations were conducted at 37° C., and the radioactive permeability experiments were carried out on a rotator. Triplicate filters were used for all permeability studies and the values listed throughout the Results section are representative of a minimum of two biological replicates.

[1] = cited from earlier work
[2] = system: BBB influx and efflux transporters (GLUT-1, MDR1, BCRP, MRP family, organic cation transporters); conditions: cited from earlier work
[3] = system: p-glycoprotein, BCRP, and the MRP family; experiment: Doxorubicin accumulation assay with efflux inhibitors in monocultured IMR90-4-derived BMECs; type: in vitro ADME, human; conditions: monoculture; doxorubicin 0.25 μCi, 1 h; 5 μM cyclosporin A, 1 μM Ko143 or 10 μM MK 571
[4] = system: p-glycoprotein, BCRP and MRP family efflux transporters; experiment: Apical-to-basolateral transport of doxorubicin with efflux inhibitors, IMR90-4-derived BMEC/astrocyte model; type: in vitro ADME, human; conditions: astrocyte co-culture; 60 min; normalized to no inhibitor
[5] = system: differentiating IMR90-4 iPSC cultures (BMEC specification); experiment: Flow cytometry of PECAM-1/GLUT-1 expression in differentiating IMR90-4 cultures under Wnt inhibition; type: cell-based, human
Protocol: Cells were harvested via Accutase (Invitrogen) incubation for 2-3 min, fixed in 100% ice-cold methanol for 20 min, and blocked with 40% PBSG for 20 min at room temperature. Primary antibody labeling (Table 5) was performed in 10% PBSG for 1 h at room temperature. IgG controls were used at the same concentration. After a wash with 5% FBS in PBS, secondary antibodies (goat anti-rabbit Alexa 488 and goat anti-mouse Alexa 647; 1:200) in 10% PBSG were added to each sample for 30 min at room temperature. After two washes with 5% FBS in PBS, the samples were analyzed on a FACScaliber flow cytometer. PECAM-1^+ events were quantified using a PECAM-1/forward scatter dot plot referenced to a rabbit IgG control. GLUT-1^+ events were quantified using a GLUT-1/forward scatter dot plot referenced to a 4D UM culture that lacked BMECs. Events that were found in both of these positive gates were classified as PECAM-1^+/GLUT-1^+ cells. βIII tubulin and nestin expression were quantified against rabbit and mouse IgG controls, respectively. Data are presented as two-dimensional dot plots with color codes to indicate events within each gate.

[6] = system: differentiating IMR90-4 cultures; experiment: Claudin-5 and occludin localization and western blots in differentiating cultures under XAV-939; type: cell-based, human; conditions: data not shown
Protocol: Cells were washed once with PBS and fixed in either 2% paraformaldehyde or 100% ice-cold methanol for 15 min. The cells were then blocked with 40% goat serum in PBS (40% PBSG). If probing for an intracellular antigen, 0.1% TX-100 was present in the 40% PBSG. The cells were then incubated in 40% PBSG containing primary antibody (see Table 5 for list) for one h at room temperature. After three washes in PBS, cells were incubated in 40% PBSG containing goat anti-rabbit Texas Red (1:500; Invitrogen) or goat anti-mouse Alexa 488 (1:500; Invitrogen). Cell nuclei were labeled with 300 nM 4′,6-Diamidino-2-pheny-lindoldihydrochloride (DAPI) for 10 min. Cells were washed three times in PBS and visualized. In situ hybridization for detection of WNT7A and WNT7B transcripts was conducted similar to the method described by Planell-Saguer et al^58. Briefly, cells were washed once with PBS and fixed in 2% paraformaldehyde for 10 min, followed by permeabilization in PBS containing 0.1% TX-100 for 5 min. Pre-hybridization was performed with a water-based solution containing 3% BSA and 4× saline-sodium citrate buffer (SSC; Fisher), followed by a 1 h hybridization in 4×SSC and 10% dextran sulfate (Fisher) at room temperature. Digoxigenin-labeled locked nucleic acid probes were purchased from Exiqon (sequences found in Table 6). […]

Wnt/β-catenin pathway = experiment: Quantitative RT-PCR of genes elevated during BMEC specification under Wnt inhibition; type: cell-based, human; conditions: IMR90-4, 7 days UM; SFRP2 250 then 750 ng/mL, or 10 μM XAV-939 from day 2, versus untreated or DMSO
Protocol: Cells were differentiated as previously described. […] For RNA collection, cells were washed once with PBS and dissociated with trypsin or accutase. Total RNA was extracted using an RNeasy Mini Kit (Qiagen) according to the manufacturer's instructions. cDNA was generated from 1 μg of RNA using Omniscript reverse transcriptase (Qiagen) and oligo-dT primers (Invitrogen). Quantitative PCR (qPCR) was then performed using 1 μL of cDNA and iQ SYBR Green Supermix (Bio-Rad) on an iCycler (Bio-Rad). RT-PCR was also performed using GoTaq Green Master Mix (Promega). Primer sequences are supplied in Table 8. Relative expression was quantified using the comparative cycle threshold (CT) method, normalizing to glyceraldehyde-3-phosphate dehydrogenase (GAPDH) expression. Fold difference was calculated as x^−ΔΔCT, where x refers to primer efficiency calculated according LinRegPCR version 12.3^59. Transcript amplification was analyzed by 2% agarose gel electrophoresis of the qPCR or RT-PCR products.

[7] = Sodium fluorescein permeability, IMR90-4-derived BMEC/astrocyte co-culture; type: in vitro ADME; conditions: human; IMR90-4-derived BMECs, astrocyte co-culture, 1 μM sodium fluorescein; read-out: fluorescein permeability coefficient (Pe) (converted)
Protocol: (§1) Permeability coefficients were evaluated after 24 hours of co-culture as previously described. […] Using a fluorescent plate reader and calibration curve, the rate of fluorescene influx to the bottom chamber was calculated, and final values for permeability coefficients were then calculated according to Calabria et al.^34.

[8] = Sodium fluorescein permeability, DF19-9-11T-derived BMECs; type: in vitro ADME; conditions: human, 1 μM sodium fluorescein, read-out: fluorescein permeability coefficient (Pe), average (converted)
Protocol: as §1

hCMEC/D3 line = hCMEC/D3 line (ref. 9); cited from earlier work
primary human BMECs = primary human BMECs (ref. 56); cited from earlier work
[9] = IMR90-4-derived BMEC/astrocyte co-culture model
[10] = IMR90-4-derived BMECs co-cultured with rat astrocytes, radiolabeled compound, apical to basolateral over 1 h, 37° C., mean ± SD of biological replicates
[11] = efflux transporter substrates (Table 6)

COc1cc2c(c(OC)c1OC)-c1ccc(OC)c(=O)cc1[C@@H](NC(C)=O)CC2 [Colchicine]
Pe value (IMR90-4-derived BMECs; [9]): 1.53 ×10⁻⁶ cm/s
Average Pe (IMR90-4-derived BMECs; [10]): 0.09 ± 0.1 10^−3 cm/min
Octanol/water partition coefficient (logD) [1]: 1.03

CN1C(=O)CN=C(c2ccccc2)c2cc(Cl)ccc21 [Diazepam]
Pe value (IMR90-4-derived BMECs; [9]): 18.5 ×10⁻⁶ cm/s
Average Pe (IMR90-4-derived BMECs; [10]): 1.11 ± 0.45 10^−3 cm/min

COc1cccc2c1C(=O)c1c(O)c3c(c(O)c1C2=O)C[C@@](O)(C(=O)CO)C[C@@H]3O[C@H]1C[C@H](N)[C@H](O)[C@H](C)O1 [Doxorubicin]
Transporter recognition [2, 11]: MDR1, BCRP, MRP1, MRP2

COc1ccc2c3c([nH]c2c1)[C@H](CC(C)C)N1C(=O)[C@H](CCC(=O)OC(C)(C)C)NC(=O)[C@@H]1C3 [Ko143]
accumulation of doxorubicin in the presence of inhibitor [3]: increased
transport of doxorubicin from the apical to basolateral chamber in the presence of inhibitor [4]: 1.3 fold
Transporter recognition ([2]; efflux transporter inhibitors (Table 6)): BCRP

COc1cc2nc(N3CCN(C(=O)c4ccco4)CC3)nc(N)c2cc1OC [Prazosin]
Pe value (IMR90-4-derived BMECs; [9]): 4.77 ×10⁻⁶ cm/s
Average Pe (IMR90-4-derived BMECs; [10]): 0.29 ± 0.04 10^−3 cm/min
Octanol/water partition coefficient (logD) [1]: 2.16

OC[C@H]1O[C@@](CO)(O[C@H]2O[C@H](CO)[C@@H](O)[C@H](O)[C@H]2O)[C@@H](O)[C@@H]1O [Sucrose]
Octanol/water partition coefficient (logD) [1]: −3.3

CC[C@]1(O)C[C@H]2CN(CCc3c([nH]c4ccccc34)[C@@](C(=O)OC)(c3cc4c(cc3OC)N(C=O)[C@H]3[C@@](O)(C(=O)OC)[C@H](OC(C)=O)[C@]5(CC)C=CCN6CC[C@]43[C@@H]65)C2)C1 [Vincristine]
Average Pe (IMR90-4-derived BMECs; human, 1 h): 0.06 ± 0.02 10^−3 cm/min
Pe value (IMR90-4-derived BMECs; human, 1 h): 1.03 ×10⁻⁶ cm/s
Octanol/water partition coefficient (logD) [1]: 2.8

Oc1nc(-c2ccc(C(F)(F)F)cc2)nc2c1CSCC2 [XAV-939]
Mean per cell expression of GLUT-1 ([5]; IMR90-4, 6D UM 2D EC, 10 μM XAV-939, DMSO control 285): 272 A.U.
% GLUT-1^+/PECAM-1^+ ([5]; IMR90-4, 6D UM 2D EC, 10 μM XAV-939 from day 2 of UM, DMSO control 64%): 46%
% PECAM-1^+ overall ([5]; IMR90-4, 6D UM 2D EC, 10 μM XAV-939 from day 2 of UM, DMSO control 68%): 61%
net reduction in the overall number of PECAM-1^+/GLUT-1^+ BMECs ([5]; IMR90-4, XAV-939 versus DMSO control): 20%
claudin-5 or occludin localization ([6]; XAV-939 treatment): did not alter
amounts of claudin-5 and occludin by western blots ([6]; regardless of XAV-939 treatment): equal amounts
expression of LEF1, FST, STRA6, FZD6, SLC2A1 and ABCB1 by quantitative RT-PCR (Wnt/β-catenin pathway): statistically significant downregulation

O=C1OC2(c3ccc(O)cc3Oc3cc(O)ccc32)c2ccccc21 [sodium fluorescein]
Papp A→B at 1 μM [7]: 0.0367 ×10⁻⁶ cm/s
Papp A→B at 1 μM [8]: 0.085 ×10⁻⁶ cm/s
reported sodium fluorescein Pe (hCMEC/D3 line): 56.7 ×10⁻⁶ cm/s
reported sodium fluorescein Pe (primary human BMECs): 53.3 ×10⁻⁶ cm/s

Inulin
Average Pe (IMR90-4-derived BMECs; [10]): 0.029 ± 0.015 10^−3 cm/min
Octanol/water partition coefficient (logD) [1]: −0.25
Transporter recognition ([2]; compounds of the permeability screen (Table 5)): None

Rhodamine 123
Transporter recognition [2, 11]: MDR1

B1: SFRP2: mouse secreted protein that binds to soluble Wnts and prevents upstream activation of the Wnt pathway (protein, UniProt P97299 25-295, looked up)
Secreted frizzled-related …: LFLFGQPDFSYKRSNCKPIPANLQLCHGIEYQNMRLPNLLGHETMKEVLEQAGAWIPLVMKQCHPDTKKFLCSLFAPVCLDDLDETIQPCHSLCVQVKDRCAPVMSAFGFPWPDMLECDRFPQDNDLCIPLASSDHLLPATEEAPKVCEACKTKNEDDNDIMETLCKNDFALKIKVKEITYINRDTKIILETKSKTIYKLNGVSERDLKKSVLWLKDSLQCTCEEMNDINAPYLVMGQKQGGELVITSVKRWQKGQREFKRISRSIRKLQC
expression of LEF1, FST, STRA6, FZD6, SLC2A1 and ABCB1 by quantitative RT-PCR (Wnt/β-catenin pathway): statistically significant downregulation
